Reference: PMC5590075, “Synthesis, Antimicrobial, and Antioxidant Activities of Chalcogen-Containing Nitrone Derivatives from (R)-citronellal” (Medicines, 2017)
In brackets after ≈: the same amount, converted by molar mass.

How the values were obtained:
L. monocytogenes = tested on: L. monocytogenes; parameters: method as in doi:10.1016/j.lwt.2014.05.036; settings: cited from earlier work
S. aureus = tested on: S. aureus; parameters: method as in doi:10.1016/j.lwt.2014.05.036; settings: cited from earlier work
S. Typhimurium = tested on: S. Typhimurium; parameters: method as in doi:10.1016/j.lwt.2014.05.036; settings: cited from earlier work
S. dysenteriae = tested on: S. dysenteriae; parameters: method as in doi:10.1016/j.lwt.2014.05.036; settings: cited from earlier work
E. coli = tested on: E. coli; parameters: method as in doi:10.1016/j.lwt.2014.05.036; settings: cited from earlier work
P. fluorescens = tested on: P. fluorescens; parameters: method as in doi:10.1016/j.lwt.2014.05.036; settings: cited from earlier work
[1] = parameters: method as in doi:10.1016/j.foodcont.2011.06.017; settings: cited from earlier work
[2] = parameters: method as in doi:10.1016/j.foodcont.2011.06.017; settings: cited from earlier work; remark: listed apart in the source
[3] = parameters: method as in doi:10.1016/j.foodcont.2011.06.017; settings: cited from earlier work; remark: listed apart in the source
[4] = tested on: Bacillus cereus ATCC 11778; assay: agar disk diffusion test; format: cell-based; settings: Bacillus cereus, ATCC11778; B. cereus, 1.0 × 10^8 CFU.mL^−1; 20 μL compound diluted in DMSO (1:1) per 6 mm disc; streptomycin 10 µg; mean of two repetitions
From the text: (§1) To evaluate the antimicrobial potential of the synthesized compounds, the following reference strains of bacteria, that are economically important in foods, were employed: Gram-positive Listeria monocytogenes ATCC 7644, Staphylococcus aureus ATCC 25923, and Bacillus cereus ATCC 11778; Gram-negative Salmonella Typhimurium ATCC 14028, Escherichia coli O157: H7 NCTC 12900 and the clinically important Pseudomonas aeruginosa ATCC 15442.
(§2) The antimicrobial activity assay using the disk diffusion test was realized using the methodology that is recommended by the Clinical Laboratory Standards Institute (CLSI). The determination of the minimum inhibitory concentration (MIC) and minimum bactericidal concentration (MBC) was performed using the macro dilution tube method, in accordance with Rota et al., with modifications. Details of these assays are provided in the Supplemental Material. […]
(§3) 2.1. Antimicrobial activity assay using the disk diffusion test
(§4) The disk diffusion test followed the methodology recommended by the Clinical Laboratory Standards Institute CLSI [4]. The inoculum was standardized by standard McFarland to the concentration of 10^8 CFU.mL−1 and spread on the surface of a Petri dish containing Mueller‐Hinton (MH) agar. Then, the paper disc (6 mm) was put on a plate impregnated with 20 μL of the testing compound previously diluted in DMSO (1:1) and incubated at 37 °C for 24 hours. Zone of inhibition ≥20 mm were considered as strong inhibition, <20–12 mm as moderate inhibition, and <12 mm no inhibition. A positive control with streptomycin antibiotic (10 μg) and a negative one, with paper discs impregnated with distilled water, were used […]
(§5) 2.4. Radical Scavenging Activity […]
(§6) The ABTS radical scavenging activity was determined according to the method described by Erel. Different concentrations of compounds 5a–d and 10 (10–500 μ M) were mixed with the ABTS+ solution, and the decrease in the absorbance at 734 nm was recorded.

[5] = tested on: Escherichia coli O157: H7 NCTC 12900; assay: agar disk diffusion test; format: cell-based; settings: Escherichia coli, NCTC12900; E. coli O157:H7, 1.0 × 10^8 CFU.mL^−1; 20 μL compound diluted in DMSO (1:1) per 6 mm disc; streptomycin 10 µg; mean of two repetitions
From the text: as §1, §2, §3, §4, §5, §6

[6] = tested on: Listeria monocytogenes ATCC 7644; assay: agar disk diffusion test; format: cell-based; settings: Listeria monocytogenes, ATCC7644; L. monocytogenes, 1.0 × 10^8 CFU.mL^−1; 20 μL compound diluted in DMSO (1:1) per 6 mm disc; streptomycin 10 µg; mean of two repetitions
From the text: as §1, §2, §3, §4, §5, §6

[7] = tested on: Pseudomonas aeruginosa ATCC 15442; assay: agar disk diffusion test; format: cell-based; settings: Pseudomonas aeruginosa, ATCC15442; P. aeruginosa, 1.0 × 10^8 CFU.mL^−1; 20 μL compound diluted in DMSO (1:1) per 6 mm disc; streptomycin 10 µg; mean of two repetitions
From the text: as §1, §2, §3, §4, §5, §6

[8] = tested on: Salmonella Typhimurium ATCC 14028; assay: agar disk diffusion test; format: cell-based; settings: Salmonella enterica; S. Typhimurium, 1.0 × 10^8 CFU.mL^−1; 20 μL compound diluted in DMSO (1:1) per 6 mm disc; streptomycin 10 µg; mean of two repetitions
From the text: as §1, §2, §3, §4, §5, §6

[9] = tested on: Staphylococcus aureus ATCC 25923; assay: agar disk diffusion test; format: cell-based; settings: Staphylococcus aureus, ATCC25923; S. aureus, 1.0 × 10^8 CFU.mL^−1; 20 μL compound diluted in DMSO (1:1) per 6 mm disc; streptomycin 10 µg; mean of two repetitions
From the text: as §1, §2, §3, §4, §5, §6

CC(C)=CCCC(C)(CC=O)Sc1ccc(Cl)cc1 (stereo not drawn) [3-(p-chlorophenyl)thio citronellal]
MIC (L. monocytogenes): 2.1 mM (≈ 623 µg/mL) | MIC (S. aureus): 2.1 mM (≈ 623 µg/mL) | MIC (S. Typhimurium): 4.2 mM (≈ 1250 µg/mL) | MIC (S. dysenteriae): 4.2 mM (≈ 1250 µg/mL) | MIC (E. coli): 4.2 mM (≈ 1250 µg/mL) | MIC (P. fluorescens): 4.2 mM (≈ 1250 µg/mL)

CC(C)=CCC[C@@H](C)C(C=O)[Se]c1ccccc1 (stereo partly drawn) [3b, α-phenylselenocitronellal]
activity in the DPPH assay (in words) [1]: inactive | activity in the ABTS assay (in words) [2]: inactive | concentrations with significant reducing power in the FRAP assay [3]: ≥ 500 mM

[H]/N=C(/N)N[C@H]1[C@H](O)[C@@H](O)[C@H](O[C@@H]2O[C@@H](C)[C@](O)(C=O)[C@H]2O[C@@H]2O[C@@H](CO)[C@H](O)[C@@H](O)[C@@H]2NC)[C@@H](N/C(N)=N\[H])[C@@H]1O [Streptomycin, reference compound]
zone of inhibition at 10 µg/disc [4]: 26 mm | zone of inhibition at 10 µg/disc [5]: 24 mm | zone of inhibition at 10 µg/disc [6]: 21 mm | zone of inhibition at 10 µg/disc [7]: 13 mm | zone of inhibition at 10 µg/disc [8]: 18 mm | zone of inhibition at 10 µg/disc [9]: 21 mm

CC(C)=CCC[C@@H](C)CC=O [compound 1, (R)-citronellal]
activity in the DPPH assay (in words) [1]: inactive | activity in the ABTS assay (in words) [2]: inactive | effect in the FRAP assay (in words) ([3]; at the same concentrations (equal and higher than 500 mM)): did not present any effect
